Where a name gives a salt, the structure may show the parent alone. ± gives the standard deviation of the averaged measurements.
How the values were obtained:
[1] = tested on: 409B2 hiPSC (iCRISPR Cas9, FRMD7 editing); test: NHEJ-attributed indel frequency relative to solvent control (fold (ratio to mock)); higher = more NHEJ outcomes
Experimental: (§1)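 Subset screen of 55 drugs tested at 5 concentrations around the effective screening dose, in 409B2 iCRISPR Cas9 hiPSCs editing FRMD7 with a ssDNA donor. Drugs were applied for 24 h. Viability was read by resazurin and editing outcomes by amplicon sequencing (HDR, NHEJ <2 bp microhomology, MMEJ ≥2 bp microhomology). Values are relative to solvent mock controls; two biological replicates.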

[2] = tested on: 409B2 hiPSC (iCRISPR Cas9, FRMD7 editing); test: cell survival relative to solvent control (fold (ratio to mock)); higher = more surviving cells
Experimental: as §1

[3] = tested on: 409B2 hiPSC (iCRISPR Cas9, FRMD7 editing); test: HDR (precise edit) frequency relative to solvent control (fold (ratio to mock)); higher = more homology-directed repair outcomes
Experimental: as §1

[4] = tested on: 409B2 hiPSC (iCRISPR Cas9, FRMD7 editing); test: MMEJ-attributed deletion frequency relative to solvent control (fold (ratio to mock)); higher = more MMEJ outcomes
Experimental: as §1

Row | SMILES | NHEJ-attributed indel frequency ([1]; 200 nM) | NHEJ-attributed indel frequency ([1]; 500 nM) | cell survival ([2]; 200 nM) | cell survival ([2]; 500 nM) | HDR ([3]; 200 nM) | HDR ([3]; 500 nM) | MMEJ-attributed deletion frequency ([4]; 200 nM) | MMEJ-attributed deletion frequency ([4]; 500 nM) | NHEJ-attributed indel frequency ([1]; 2000 nM) | NHEJ-attributed indel frequency ([1]; 5000 nM) | cell survival ([2]; 2000 nM) | cell survival ([2]; 5000 nM) | HDR ([3]; 2000 nM) | HDR ([3]; 5000 nM) | MMEJ-attributed deletion frequency ([4]; 2000 nM) | MMEJ-attributed deletion frequency ([4]; 5000 nM) | NHEJ-attributed indel frequency ([1]; 1000 nM) | cell survival ([2]; 1000 nM) | HDR ([3]; 1000 nM) | MMEJ-attributed deletion frequency ([4]; 1000 nM) | further results
1 | CC(=O)O[C@]1(C(C)=O)CC[C@H]2[C@@H]3C=C(C)C4=CC(=O)CC[C@]4(C)[C@H]3CC[C@@]21C [Megestrol Acetate] (in EtOH) | 1 ± 0.045 | 1.02 ± 0.032 | 1.12 | 1.05 | 0.953 ± 0.015 | 0.96 ± 0.028 | 1.1 ± 0.091 | 0.9348 ± 0.0058 | – | – | – | – | – | – | – | – | – | – | – | – | NHEJ-attributed indel frequency ([1]; 20 nM): 0.999 ± 0.028; NHEJ-attributed indel frequency ([1]; 50 nM): 1.004 ± 0.007; NHEJ-attributed indel frequency ([1]; 100 nM): 1.03 ± 0.037; cell survival ([2]; 20 nM): 1.6; cell survival ([2]; 50 nM): 1.46; cell survival ([2]; 100 nM): 1.18; HDR ([3]; 20 nM): 0.975 ± 0.027; HDR ([3]; 50 nM): 0.93 ± 0.072; HDR ([3]; 100 nM): 0.95 ± 0.068; MMEJ-attributed deletion frequency ([4]; 20 nM): 1.01 ± 0.013; MMEJ-attributed deletion frequency ([4]; 50 nM): 1.16 ± 0.079; MMEJ-attributed deletion frequency ([4]; 100 nM): 0.9716 ± 0.0036
2 | CCCCCCCCCCCCCC(=O)O [Myristic Acid] (in DMSO) | 0.981 ± 0.024 | 0.967 ± 0.0099 | 1.25 | 1.49 | 1.07 ± 0.019 | 1.1 ± 0.064 | 1.1 ± 0.051 | 1.03 ± 0.099 | – | – | – | – | – | – | – | – | – | – | – | – | NHEJ-attributed indel frequency ([1]; 20 nM): 0.9964 ± 0.0076; NHEJ-attributed indel frequency ([1]; 50 nM): 1.0053 ± 2.8e-05; NHEJ-attributed indel frequency ([1]; 100 nM): 1.016 ± 0.003; cell survival ([2]; 20 nM): 1.01; cell survival ([2]; 50 nM): 1.23; cell survival ([2]; 100 nM): 1.07; HDR ([3]; 20 nM): 1.04 ± 0.025; HDR ([3]; 50 nM): 1.03 ± 0.072; HDR ([3]; 100 nM): 1.034 ± 0.01; MMEJ-attributed deletion frequency ([4]; 20 nM): 0.977 ± 0.13; MMEJ-attributed deletion frequency ([4]; 50 nM): 0.921 ± 0.13; MMEJ-attributed deletion frequency ([4]; 100 nM): 1.02 ± 0.2
3 | C[C@@H]1O[C@@H](O[C@H]2C[C@@H](O)[C@]3(CO)[C@H]4[C@H](O)C[C@]5(C)[C@@H](C6=CC(=O)OC6)CC[C@]5(O)[C@@H]4CC[C@]3(O)C2)[C@H](O)[C@H](O)[C@H]1O [Ouabain Octahydrate] (in H2O) | – | – | – | – | – | – | – | – | 0.523 ± 0.026 | 0.539 ± 0.1 | 0.0512 | 0.0777 | 0.0693 ± 0.021 | 0.0683 ± 0.03 | 3.06 ± 0.43 | 2.82 ± 1.1 | – | – | – | – | NHEJ-attributed indel frequency ([1]; 10000 nM): 0.435 ± 0.13; NHEJ-attributed indel frequency ([1]; 20000 nM): 0.392 ± 0.093; NHEJ-attributed indel frequency ([1]; 50000 nM): 0.736 ± 0.38; cell survival ([2]; 10000 nM): 0.0589; cell survival ([2]; 20000 nM): 0.0655; cell survival ([2]; 50000 nM): 0.585; HDR ([3]; 10000 nM): 0.0814 ± 0.045; HDR ([3]; 20000 nM): 0.068 ± 0.013; HDR ([3]; 50000 nM): 0.505 ± 0.64; MMEJ-attributed deletion frequency ([4]; 10000 nM): 2.58 ± 0.43; MMEJ-attributed deletion frequency ([4]; 20000 nM): 2.31 ± 0.4; MMEJ-attributed deletion frequency ([4]; 50000 nM): 1.87 ± 1.1
4 | CC1(C)S[C@@H]2[C@H](NC(=O)COc3ccccc3)C(=O)N2[C@H]1C(=O)O [Penicillin V potassium salt] (in DMSO) | 1.006 ± 0.0015 | 1.012 ± 0.0034 | 0.876 | 1.15 | 0.992 ± 0.094 | 1.05 ± 0.012 | 1.02 ± 0.097 | 0.994 ± 0.04 | 1 ± 0.021 | 1.01 ± 0.013 | 0.894 | 0.923 | 1.01 ± 0.062 | 0.964 ± 0.11 | 1.1 ± 0.047 | 1.05 ± 0.11 | 0.9903 ± 0.0037 | 0.976 | 0.992 ± 0.02 | 0.963 ± 0.15 | –
5 | Cc1c(C(C)C)c(=O)n(-c2ccccc2)n1C [Propyphenazone (4-Isopropylantipyrine)] (in DMSO) | 1.01 ± 0.013 | 0.993 ± 0.022 | 1.03 | 1.24 | 1.04 ± 0.021 | 1.11 ± 0.044 | 0.984 ± 0.021 | 0.969 ± 0.059 | 0.995 ± 0.035 | 0.988 ± 0.014 | 1.2 | 1.13 | 1.07 ± 0.064 | 1.08 ± 0.031 | 0.954 ± 0.091 | 0.965 ± 0.06 | 0.993 ± 0.041 | 1.03 | 1.1 ± 0.068 | 0.881 ± 0.036 | –
6 | Cc1nc(=O)c2cc(CN(C)c3ccc(C(=O)N[C@@H](CCC(=O)O)C(=O)O)s3)ccc2[nH]1 [Raltitrexed] (in DMSO) | 0.977 ± 0.023 | 0.967 ± 0.01 | 1.09 | 1.21 | 1.138 ± 0.0048 | 1.13 ± 0.038 | 1.01 ± 0.14 | 1 ± 0.078 | 0.981 ± 0.026 | 0.957 ± 0.039 | 1.05 | 1.11 | 1.13 ± 0.042 | 1.13 ± 0.14 | 0.948 ± 0.012 | 1.02 ± 0.057 | 0.984 ± 0.021 | 0.963 | 1.16 ± 0.1 | 1.12 ± 0.035 | –

Source: the supplement of paper PMC12698765
